Data published in patent publication US12678437B2, “Use of Cyclo-HisPro (CHP) for lowering blood pressure” (NOVMETAPHARMA CO., LTD., priority 2020, dated 2026).

What was measured:
⅚ nephrectomy rats [1] = experiment: Therapeutic (post-treatment) blood pressure control in ⅚ nephrectomy rats; assay type: in vivo; conditions: ⅚ nephrectomy SD rats; oral 35 mg/kg every other day for 6 weeks from 2 weeks after nephrectomy; tail artery; SHAM 127.8, disease control (Nx) 196.2
Experimental: After pre-bringing 7-week-old SD rats purchased from Koatech Co., Ltd. for more than one week, the experimental group underwent surgery in two stages. After general anesthesia, incision was performed along the midline of the abdomen to separate the left kidney from the adrenal glands and surrounding tissues, and after holding the renal blood vessel with forceps to prevent bleeding, the upper ⅓ and lower ⅓ of the left kidney were removed, and after 1 week, general anesthesia was performed again, and the entire right kidney was removed to complete a ⅚ nephrectomy model.
In order to reduce the error range of blood pressure measurement, the experimental animals were calibrated in the holder of a blood pressure meter (BP-2000 blood pressure analysis system, rat platform 2-channel, Visitech Systems, Apex, NC, USA) and then acclimatized in a heating chamber at 37° C. for 30 minutes, and the systolic blood pressure was measured at least 5 times in the tail artery to obtain the average value. The significance of the experimental results was verified by performing t-test for each group of the disease control group (Nx), the normal control group and the Cyclo-HisPro administration group, and there was a statistically significant difference (**p<0.005, ***p<0.0005, ****p<0.00005).
2-1. Construction of ⅚ Nephrectomy Model and Administration of Cyclo-HisPro […]

⅚ nephrectomy rats [2] = experiment: Prophylactic (pre-treatment) blood pressure control in ⅚ nephrectomy rats; assay type: in vivo; conditions: ⅚ nephrectomy SD rats; oral 35 mg/kg every other day for 8 weeks from 3 days before nephrectomy; tail artery; SHAM 127.8, disease control (Nx) 196.2
From the text: 1-1. Construction of ⅚ Nephrectomy Model and Cyclo-HisPro Administration
The kidney is involved in water and sodium metabolism and is closely associated with the renin-angiotensin system, and thus, kidney disease itself, that is, glomerulitis or renal failure, may cause hypertension and play an important role in the development of essential hypertension. Chronic renal failure through nephrectomy in rats leads to continued progression of hypertension, uremia, proteinuria and glomerulosclerosis.
After pre-bringing 7-week-old SD rats purchased from Koatech Co., Ltd. for more than one week, the experimental group underwent surgery in two stages. […]
In order to reduce the error range of blood pressure measurement, the experimental animals were calibrated in the holder of a blood pressure meter (BP-2000 blood pressure analysis system, rat platform 2-channel, Visitech Systems, Apex, NC, USA) and then acclimatized in a heating chamber at 37° C. for 30 minutes, and the systolic blood pressure was measured at least 5 times in the tail artery to obtain the average value. […]

VE-cadherin = VE-cadherin protein expression (Western blot) in angiotensin II-treated HUVEC cells; assay type: cell-based, Human; conditions: HUVEC cells treated with Ang II and CHP, versus Ang II-treated control; corrected by β-actin
Experimental: (§1) Human umbilical vein endothelial cells (HUVEC, CRL-1730) were obtained from the American Type Culture Collection (ATCC), and EBM-2 basal medium and EGM-2 MV microvascular endothelial cell growth medium SingleQuots supplements were purchased from Lonza.
(§2) HUVEC cells were cultured in EBM-2 medium supplemented with EGM-2 MV SingleQuots supplements at 37° C. and 5% CO2 conditions. The medium was replaced every 2 to 3 days, and subculture was performed at 70 to 80% confluency.
(§3) HUVEC cells treated with angiotensin II and CHP were placed in 500 uL of RIPA buffer containing protease and phosphatase inhibitors, and then pulverized by using IKA's T10 homogenizer. […] The supernatant was collected and the protein concentration was measured by BCA quantitation, and the same amount of samples was separated by using the Bolt TM protein gel electrophoresis system, and then transferred to a nitrocellulose membrane. […] After washing 3 times for 10 minutes with TBST, the expression level was measured by reacting with ECL. The size of the appearing band was quantified by using the ImageJ program and corrected by dividing the size value of each band by the size value of the β-actin band. Statistical significance was analyzed by using Student's t-test statistical method with angiotensin II-treated control group (Ang II) (*p<0.05, […], ***p<0.0005).

HMVEC-L cells = experiment: NO production (DAF-FM DA fluorescence) in HMVEC-L cells; assay type: cell-based, Human; conditions: CHP 0, 1, 10, 100 and 500 μM, serum-free medium, 2 hours, versus control not treated with CHP
Experimental: Human lung microvascular cells (HMVEC-L, CC2527) were obtained from the American Type Culture Collection (ATCC), and EBM-2 basal medium and EGM-2 MV microvascular endothelial cell growth medium SingleQuots supplements were purchased from Lonza.
HUVEC-L cells were cultured in EBM-2 medium supplemented with EGM-2 MV SingleQuots at 37° C. and 5% CO2 conditions. The medium was replaced every 2 to 3 days, and subculture was performed at 70 to 80% confluency.
5×10^4 cells were placed in a black 96-well plate, incubated for 24 hours and treated with CHP at concentrations of 0, 1, 10, 100 and 500 μM in serum-free medium, respectively, and cultured at 37° C. and 5% CO2 conditions for 2 hours. DAF-FM DA (DAF-FM Diacetate; Invitrogen) at a concentration of 5 μM was added and further incubated for 30 minutes, and it was washed once with PBS and observed with a fluorescence microscope at FITC wavelength. Photographs were taken at the same exposure time, and the fluorescence intensity of each cell was measured by using the ImageJ tool. Statistical significance was analyzed by one-way ANOVA statistical method, and comparison with the control group which was not treated with CHP was analyzed by Dunnett's test (****p<0.0001).

[3] = system: AT1R (angiotensin II type I receptor); experiment: AT1R protein expression (Western blot) in angiotensin II-treated HUVEC cells; assay type: cell-based, Human; conditions: HUVEC cells treated with Ang II and CHP, versus Ang II-treated control; corrected by β-actin
Experimental: as §1, §2, §3

[4] = system: AT2R (angiotensin II type 2 receptor); experiment: AT2R protein expression (Western blot) in angiotensin II-treated HUVEC cells; assay type: cell-based, Human; conditions: HUVEC cells treated with Ang II and CHP, versus Ang II-treated control; corrected by β-actin
Experimental: as §1, §2, §3

eNOS gene = eNOS gene expression (real-time PCR) in SVEC4-10 cells; assay type: cell-based, mouse; conditions: CHP 0, 10, 100 and 250 μM, serum-free medium, 2 hours, corrected by β-actin
Experimental: SVEC4-10 (CRL-2181), which is a mouse endothelial cell line, was obtained from the American Type Culture Collection (ATCC), and RPMI-1640 medium and FBS were purchased from Hyclone.
SVEC4-10 cells were cultured at 37° C. and 5% CO2 conditions by using RPMI-1640 medium containing 10% FBS and 1% penicillin/streptomycin, and subculture was performed every 2 days.
SVEC4-10 cells were placed in a 6-well plate at 5×10^5 cells and cultured for 24 hours. CHP was treated at concentrations of 0, 10, 100 and 250 μM in serum-free medium, respectively, and then it was cultured at 37° C. and 5% CO2 conditions for 2 hours. Thereafter, the medium was removed, and it was washed once with cold PBS and then immediately dissolved using NucleoZOL.
For RNA extraction, RNA was extracted according to the manufacturer's total RNA isolation protocol by using NucleoZOL (MACHEREY-NAGEL), and 1 μg of RNA was subjected to reverse transcription polymerase chain reaction to synthesize cDNA by using iScript cDNA synthesis kit (Bio-Rad). The synthesized cDNA was analyzed by real-time PCR using iQ SYBR Green Supermix (Bio-Rad) by using the primer set of the eNOS gene.
Each gene expression value was corrected by dividing by the expression value of β-actin, which is a housekeeping gene. Statistical significance was analyzed by the Student's t-test statistical method (*p<0.05).

For `O=C1N[C@@H](Cc2cnc[nH]2)C(=O)N2CCC[C@@H]12` [Cyclo-HisPro], the systolic blood pressure (⅚ nephrectomy rats [1]) was 171.6 mmHg, the systolic blood pressure (⅚ nephrectomy rats [2]) was 156.7 mmHg and the VE-cadherin protein expression (VE-cadherin) was “statistically significantly increased”. The “NO production (intensity of DAF-FM DA fluorescence)” value (HMVEC-L cells) was “significantly increased”, the AT1R protein expression [3] was “statistically significantly decreased” and the AT2R protein expression [4] was “tended to increase”. The “expression of the eNOS gene” value (eNOS gene) was “significantly increased”.
